Measured values published in the NIST ThermoML archive (doi:10.1021/je0202073).

Experiments:
[1] = xn = mol fraction of the nth substance listed; settings: 101.3 kPa, Liquid
[2] = excess molar enthalpy (molar enthalpy of mixing); xn = mol fraction of the nth substance listed; settings: 101.3 kPa, Liquid, Calvet calorimetry

CC(C)(C)O [2-methylpropan-2-ol] + CCOC(C)=O
Settings | excess molar enthalpy [kJ/mol] | excess molar volume [m3/mol]
[1], 303.15 K, x2 = 0.0458 | – | 1.14e-06
[1], 303.15 K, x2 = 0.0972 | – | 2.65e-06
[1], 303.15 K, x2 = 0.1702 | – | 4.43e-06
[1], 303.15 K, x2 = 0.1982 | – | 4.99e-06
[1], 303.15 K, x2 = 0.2483 | – | 5.78e-06
[1], 303.15 K, x2 = 0.2718 | – | 6.12e-06
[1], 303.15 K, x2 = 0.3074 | – | 6.6e-06
[1], 303.15 K, x2 = 0.3613 | – | 7.08e-06
[1], 303.15 K, x2 = 0.3973 | – | 7.3e-06
[1], 303.15 K, x2 = 0.4626 | – | 7.52e-06
[1], 303.15 K, x2 = 0.5178 | – | 7.55e-06
[1], 303.15 K, x2 = 0.5274 | – | 7.54e-06
[1], 303.15 K, x2 = 0.5449 | – | 7.51e-06
[1], 303.15 K, x2 = 0.5624 | – | 7.48e-06
[1], 303.15 K, x2 = 0.5722 | – | 7.42e-06
[1], 303.15 K, x2 = 0.5885 | – | 7.35e-06
[1], 303.15 K, x2 = 0.5998 | – | 7.3e-06
[1], 303.15 K, x2 = 0.6022 | – | 7.27e-06
[1], 303.15 K, x2 = 0.6086 | – | 7.2e-06
[1], 303.15 K, x2 = 0.6124 | – | 7.17e-06
[1], 303.15 K, x2 = 0.6336 | – | 7.06e-06
[1], 303.15 K, x2 = 0.6501 | – | 6.87e-06
[1], 303.15 K, x2 = 0.7084 | – | 6.24e-06
[1], 303.15 K, x2 = 0.7732 | – | 5.29e-06
[1], 303.15 K, x2 = 0.8111 | – | 4.6e-06
[1], 303.15 K, x2 = 0.8533 | – | 3.72e-06
[1], 303.15 K, x2 = 0.8915 | – | 2.84e-06
[1], 303.15 K, x2 = 0.9686 | – | 8.6e-07
[1], 318.15 K, x2 = 0.0796 | – | 2.37e-06
[1], 318.15 K, x2 = 0.1377 | – | 3.7e-06
[1], 318.15 K, x2 = 0.1899 | – | 4.83e-06
[1], 318.15 K, x2 = 0.2558 | – | 6.14e-06
[1], 318.15 K, x2 = 0.2985 | – | 6.84e-06
[1], 318.15 K, x2 = 0.3703 | – | 7.44e-06
[1], 318.15 K, x2 = 0.4344 | – | 7.86e-06
[1], 318.15 K, x2 = 0.4633 | – | 7.93e-06
[1], 318.15 K, x2 = 0.5377 | – | 7.95e-06
[1], 318.15 K, x2 = 0.5626 | – | 7.87e-06
[1], 318.15 K, x2 = 0.6284 | – | 7.55e-06
[1], 318.15 K, x2 = 0.6913 | – | 7e-06
[1], 318.15 K, x2 = 0.767 | – | 5.96e-06
[1], 318.15 K, x2 = 0.8516 | – | 4.18e-06
[1], 318.15 K, x2 = 0.8891 | – | 3.61e-06
[1], 318.15 K, x2 = 0.9294 | – | 2.37e-06
[2], 299.15 K, x2 = 0.0546 | 0.376 | –
[2], 299.15 K, x2 = 0.1163 | 0.746 | –
[2], 299.15 K, x2 = 0.181 | 1.1 | –
[2], 299.15 K, x2 = 0.2456 | 1.39 | –
[2], 299.15 K, x2 = 0.3079 | 1.61 | –
[2], 299.15 K, x2 = 0.3672 | 1.77 | –
[2], 299.15 K, x2 = 0.4207 | 1.86 | –
[2], 299.15 K, x2 = 0.4707 | 1.92 | –
[2], 299.15 K, x2 = 0.5157 | 1.94 | –
[2], 299.15 K, x2 = 0.5541 | 1.93 | –
[2], 299.15 K, x2 = 0.564 | 1.93 | –
[2], 299.15 K, x2 = 0.6199 | 1.86 | –
[2], 299.15 K, x2 = 0.68 | 1.73 | –
[2], 299.15 K, x2 = 0.7438 | 1.53 | –
[2], 299.15 K, x2 = 0.8091 | 1.25 | –
[2], 299.15 K, x2 = 0.8769 | 0.887 | –
[2], 299.15 K, x2 = 0.9385 | 0.489 | –
[2], 318.15 K, x2 = 0.0538 | 0.334 | –
[2], 318.15 K, x2 = 0.1146 | 0.688 | –
[2], 318.15 K, x2 = 0.1733 | 1 | –
[2], 318.15 K, x2 = 0.2313 | 1.29 | –
[2], 318.15 K, x2 = 0.2953 | 1.51 | –
[2], 318.15 K, x2 = 0.3487 | 1.66 | –
[2], 318.15 K, x2 = 0.3987 | 1.76 | –
[2], 318.15 K, x2 = 0.4461 | 1.83 | –
[2], 318.15 K, x2 = 0.4878 | 1.86 | –
[2], 318.15 K, x2 = 0.5176 | 1.87 | –
[2], 318.15 K, x2 = 0.5676 | 1.86 | –
[2], 318.15 K, x2 = 0.6236 | 1.79 | –
[2], 318.15 K, x2 = 0.6844 | 1.66 | –
[2], 318.15 K, x2 = 0.7436 | 1.47 | –
[2], 318.15 K, x2 = 0.8108 | 1.19 | –
[2], 318.15 K, x2 = 0.8797 | 0.828 | –
[2], 318.15 K, x2 = 0.9442 | 0.433 | –

CCCC(=O)OCC [ethyl butanoate] + CC(C)(C)O
Settings | excess molar enthalpy [kJ/mol] | excess molar volume [m3/mol]
[1], 303.15 K, x1 = 0.0445 | – | 9.2e-07
[1], 303.15 K, x1 = 0.0966 | – | 2.08e-06
[1], 303.15 K, x1 = 0.1518 | – | 3.11e-06
[1], 303.15 K, x1 = 0.1999 | – | 3.83e-06
[1], 303.15 K, x1 = 0.2466 | – | 4.41e-06
[1], 303.15 K, x1 = 0.3111 | – | 5.13e-06
[1], 303.15 K, x1 = 0.3504 | – | 5.6e-06
[1], 303.15 K, x1 = 0.4043 | – | 5.91e-06
[1], 303.15 K, x1 = 0.4468 | – | 6.09e-06
[1], 303.15 K, x1 = 0.4837 | – | 6.11e-06
[1], 303.15 K, x1 = 0.5015 | – | 6.11e-06
[1], 303.15 K, x1 = 0.5259 | – | 6.07e-06
[1], 303.15 K, x1 = 0.5538 | – | 5.99e-06
[1], 303.15 K, x1 = 0.6004 | – | 5.74e-06
[1], 303.15 K, x1 = 0.6399 | – | 5.5e-06
[1], 303.15 K, x1 = 0.663 | – | 5.23e-06
[1], 303.15 K, x1 = 0.7129 | – | 4.83e-06
[1], 303.15 K, x1 = 0.7538 | – | 4.33e-06
[1], 303.15 K, x1 = 0.7934 | – | 3.77e-06
[1], 303.15 K, x1 = 0.8465 | – | 2.99e-06
[1], 303.15 K, x1 = 0.9017 | – | 2e-06
[1], 303.15 K, x1 = 0.9614 | – | 8.2e-07
[1], 318.15 K, x1 = 0.0604 | – | 1.83e-06
[1], 318.15 K, x1 = 0.1099 | – | 2.85e-06
[1], 318.15 K, x1 = 0.1559 | – | 3.63e-06
[1], 318.15 K, x1 = 0.2141 | – | 4.45e-06
[1], 318.15 K, x1 = 0.265 | – | 5.17e-06
[1], 318.15 K, x1 = 0.2982 | – | 5.41e-06
[1], 318.15 K, x1 = 0.3386 | – | 5.74e-06
[1], 318.15 K, x1 = 0.39 | – | 6.14e-06
[1], 318.15 K, x1 = 0.4477 | – | 6.44e-06
[1], 318.15 K, x1 = 0.4595 | – | 6.5e-06
[1], 318.15 K, x1 = 0.4778 | – | 6.53e-06
[1], 318.15 K, x1 = 0.4982 | – | 6.55e-06
[1], 318.15 K, x1 = 0.4996 | – | 6.56e-06
[1], 318.15 K, x1 = 0.5163 | – | 6.56e-06
[1], 318.15 K, x1 = 0.5222 | – | 6.55e-06
[1], 318.15 K, x1 = 0.5936 | – | 6.38e-06
[1], 318.15 K, x1 = 0.6597 | – | 6.03e-06
[1], 318.15 K, x1 = 0.7011 | – | 5.73e-06
[1], 318.15 K, x1 = 0.745 | – | 5.15e-06
[1], 318.15 K, x1 = 0.7968 | – | 4.5e-06
[1], 318.15 K, x1 = 0.8396 | – | 3.81e-06
[1], 318.15 K, x1 = 0.8701 | – | 3.15e-06
[1], 318.15 K, x1 = 0.9283 | – | 2.01e-06
[2], 299.15 K, x1 = 0.0438 | 0.252 | –
[2], 299.15 K, x1 = 0.0937 | 0.516 | –
[2], 299.15 K, x1 = 0.1461 | 0.779 | –
[2], 299.15 K, x1 = 0.1991 | 1.04 | –
[2], 299.15 K, x1 = 0.2541 | 1.24 | –
[2], 299.15 K, x1 = 0.3061 | 1.41 | –
[2], 299.15 K, x1 = 0.3568 | 1.55 | –
[2], 299.15 K, x1 = 0.4053 | 1.64 | –
[2], 299.15 K, x1 = 0.4331 | 1.7 | –
[2], 299.15 K, x1 = 0.4818 | 1.74 | –
[2], 299.15 K, x1 = 0.5387 | 1.75 | –
[2], 299.15 K, x1 = 0.6024 | 1.71 | –
[2], 299.15 K, x1 = 0.6746 | 1.6 | –
[2], 299.15 K, x1 = 0.7522 | 1.39 | –
[2], 299.15 K, x1 = 0.833 | 1.05 | –
[2], 299.15 K, x1 = 0.9172 | 0.599 | –
[2], 318.15 K, x1 = 0.0394 | 0.293 | –
[2], 318.15 K, x1 = 0.0951 | 0.577 | –
[2], 318.15 K, x1 = 0.158 | 0.851 | –
[2], 318.15 K, x1 = 0.2201 | 1.09 | –
[2], 318.15 K, x1 = 0.2807 | 1.31 | –
[2], 318.15 K, x1 = 0.3377 | 1.46 | –
[2], 318.15 K, x1 = 0.385 | 1.57 | –
[2], 318.15 K, x1 = 0.4267 | 1.64 | –
[2], 318.15 K, x1 = 0.4576 | 1.69 | –
[2], 318.15 K, x1 = 0.4628 | 1.69 | –
[2], 318.15 K, x1 = 0.4938 | 1.72 | –
[2], 318.15 K, x1 = 0.5386 | 1.74 | –
[2], 318.15 K, x1 = 0.5934 | 1.71 | –
[2], 318.15 K, x1 = 0.6595 | 1.62 | –
[2], 318.15 K, x1 = 0.7407 | 1.41 | –
[2], 318.15 K, x1 = 0.8336 | 1.04 | –
[2], 318.15 K, x1 = 0.9223 | 0.57 | –
